Data from ChEMBL document CHEMBL1146152, “5-(1H-Benzimidazol-1-yl)-3-alkoxy-2-thiophenecarbonitriles as potent, selective, inhibitors of IKK-epsilon kinase” (Bioorg Med Chem Lett, 2006).
pIC50: −log10 of the molar value. ≈ marks a conversion by molar mass, not a printed value.

Assays:
[1] = target: Cytochrome P450 2D6 (Homo sapiens, UniProt P10635); assay: Inhibition of CYP2D6; type: ADME
[2] = target: Cytochrome P450 2C9 (Homo sapiens, UniProt P11712); assay: Inhibition of CYP2C9; type: ADME
[3] = Aqueous solubility of the compound; type: physicochemical; details: buffer
[4] = target: Mitogen-activated protein kinase 11 (Homo sapiens, UniProt Q15759); assay: Inhibition of p38beta
[5] = target: Cytochrome P450 3A4 (Homo sapiens, UniProt P08684); assay: Inhibition of CYP3A4; type: ADME
[6] = target: T1, TGF-beta receptor type-1 (Homo sapiens, UniProt P36897); assay: Inhibition of Alk5
T1 sequence (P36897 whole entry): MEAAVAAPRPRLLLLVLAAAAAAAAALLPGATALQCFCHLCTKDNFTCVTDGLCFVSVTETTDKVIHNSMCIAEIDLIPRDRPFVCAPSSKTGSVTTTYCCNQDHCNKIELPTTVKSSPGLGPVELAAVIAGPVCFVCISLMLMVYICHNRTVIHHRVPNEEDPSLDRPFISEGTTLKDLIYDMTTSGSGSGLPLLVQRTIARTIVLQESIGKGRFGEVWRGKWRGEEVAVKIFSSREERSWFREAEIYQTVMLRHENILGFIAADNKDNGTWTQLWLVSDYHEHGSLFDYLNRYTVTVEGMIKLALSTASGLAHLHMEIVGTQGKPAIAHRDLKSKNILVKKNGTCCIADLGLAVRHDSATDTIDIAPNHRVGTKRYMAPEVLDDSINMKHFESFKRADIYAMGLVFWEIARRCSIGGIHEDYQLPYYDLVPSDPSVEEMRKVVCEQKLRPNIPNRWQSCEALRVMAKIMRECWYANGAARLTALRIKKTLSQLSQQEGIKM

[7] = target: Epidermal growth factor receptor (Homo sapiens, UniProt P00533); assay: Inhibition of EGFR
[8] = target: Glycogen synthase kinase-3 (Homo sapiens, UniProt P49840+P49841); assay: Inhibition of GSK3; type: protein assay
[9] = target: T2, Cytochrome P450 1A2 (Homo sapiens, UniProt P05177); assay: Inhibition of CYP1A2; type: ADME
T2 sequence (P05177 whole entry): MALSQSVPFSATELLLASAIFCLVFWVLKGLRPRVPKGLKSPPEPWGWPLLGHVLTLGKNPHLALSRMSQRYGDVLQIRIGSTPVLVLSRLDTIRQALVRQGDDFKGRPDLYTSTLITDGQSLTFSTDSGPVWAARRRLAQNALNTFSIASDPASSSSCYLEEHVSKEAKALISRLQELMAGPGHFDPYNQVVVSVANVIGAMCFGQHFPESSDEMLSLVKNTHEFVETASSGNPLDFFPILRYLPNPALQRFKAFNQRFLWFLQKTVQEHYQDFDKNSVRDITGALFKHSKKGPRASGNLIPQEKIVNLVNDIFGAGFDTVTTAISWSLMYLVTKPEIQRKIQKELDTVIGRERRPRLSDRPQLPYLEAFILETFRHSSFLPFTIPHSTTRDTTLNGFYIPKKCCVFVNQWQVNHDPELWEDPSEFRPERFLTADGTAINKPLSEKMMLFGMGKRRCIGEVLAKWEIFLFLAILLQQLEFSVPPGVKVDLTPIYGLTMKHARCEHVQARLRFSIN

[10] = target: Serine/threonine-protein kinase PLK1 (Homo sapiens, UniProt P53350); assay: Inhibition of PLK1
[11] = target: Mitogen-activated protein kinase 14 (Homo sapiens, UniProt Q16539); assay: Inhibition of p38alpha
[12] = target: T3, Inhibitor of nuclear factor kappa-B kinase subunit epsilon (Homo sapiens, UniProt Q14164); assay: Inhibition of human recombinant IKKepsilon by TR-FRET assay
T3 sequence (Q14164 whole entry): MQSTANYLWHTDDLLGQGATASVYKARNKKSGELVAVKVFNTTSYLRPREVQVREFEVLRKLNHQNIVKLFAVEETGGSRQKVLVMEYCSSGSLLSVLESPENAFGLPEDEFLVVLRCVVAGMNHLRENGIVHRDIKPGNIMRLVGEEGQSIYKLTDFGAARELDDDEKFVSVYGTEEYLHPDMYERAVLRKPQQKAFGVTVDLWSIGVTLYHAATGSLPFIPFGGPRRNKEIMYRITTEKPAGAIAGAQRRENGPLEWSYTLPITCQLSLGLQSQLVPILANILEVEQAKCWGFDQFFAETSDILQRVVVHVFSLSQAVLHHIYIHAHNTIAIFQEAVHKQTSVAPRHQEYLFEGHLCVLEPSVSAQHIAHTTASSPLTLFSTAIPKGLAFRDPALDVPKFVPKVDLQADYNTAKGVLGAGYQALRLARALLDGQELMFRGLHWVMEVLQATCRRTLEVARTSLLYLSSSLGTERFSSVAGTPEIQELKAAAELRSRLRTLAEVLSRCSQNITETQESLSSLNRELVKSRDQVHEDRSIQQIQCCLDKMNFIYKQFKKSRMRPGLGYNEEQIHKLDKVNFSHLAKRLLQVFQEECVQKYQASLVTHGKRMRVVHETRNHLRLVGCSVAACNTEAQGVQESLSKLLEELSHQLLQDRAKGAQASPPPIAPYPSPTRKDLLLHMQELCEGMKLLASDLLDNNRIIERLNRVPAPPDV

[13] = target: Receptor tyrosine-protein kinase erbB-2 (Homo sapiens, UniProt P04626); assay: Inhibition of ErB2
[14] = target: Mitogen-activated protein kinase 10 (Homo sapiens, UniProt P53779); assay: Inhibition of JNK3

Chain of Serine/threonine-protein kinase PLK1 (P53350 whole entry): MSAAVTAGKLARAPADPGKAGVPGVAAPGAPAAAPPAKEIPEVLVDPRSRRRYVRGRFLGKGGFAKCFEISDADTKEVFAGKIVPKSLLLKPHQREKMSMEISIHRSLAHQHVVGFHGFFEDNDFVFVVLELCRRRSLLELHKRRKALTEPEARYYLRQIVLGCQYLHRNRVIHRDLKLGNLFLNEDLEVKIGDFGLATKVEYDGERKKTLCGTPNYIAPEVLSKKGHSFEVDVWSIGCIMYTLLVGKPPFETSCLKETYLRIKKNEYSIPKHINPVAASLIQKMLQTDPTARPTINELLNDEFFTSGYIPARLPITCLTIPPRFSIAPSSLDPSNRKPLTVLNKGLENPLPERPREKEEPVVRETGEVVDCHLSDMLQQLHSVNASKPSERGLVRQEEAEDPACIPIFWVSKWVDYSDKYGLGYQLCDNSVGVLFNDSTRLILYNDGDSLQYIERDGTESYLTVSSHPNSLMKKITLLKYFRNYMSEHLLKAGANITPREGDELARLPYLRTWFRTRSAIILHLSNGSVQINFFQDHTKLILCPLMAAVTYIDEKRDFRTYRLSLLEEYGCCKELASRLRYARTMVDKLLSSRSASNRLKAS
Chain of Epidermal growth factor receptor (P00533 whole entry): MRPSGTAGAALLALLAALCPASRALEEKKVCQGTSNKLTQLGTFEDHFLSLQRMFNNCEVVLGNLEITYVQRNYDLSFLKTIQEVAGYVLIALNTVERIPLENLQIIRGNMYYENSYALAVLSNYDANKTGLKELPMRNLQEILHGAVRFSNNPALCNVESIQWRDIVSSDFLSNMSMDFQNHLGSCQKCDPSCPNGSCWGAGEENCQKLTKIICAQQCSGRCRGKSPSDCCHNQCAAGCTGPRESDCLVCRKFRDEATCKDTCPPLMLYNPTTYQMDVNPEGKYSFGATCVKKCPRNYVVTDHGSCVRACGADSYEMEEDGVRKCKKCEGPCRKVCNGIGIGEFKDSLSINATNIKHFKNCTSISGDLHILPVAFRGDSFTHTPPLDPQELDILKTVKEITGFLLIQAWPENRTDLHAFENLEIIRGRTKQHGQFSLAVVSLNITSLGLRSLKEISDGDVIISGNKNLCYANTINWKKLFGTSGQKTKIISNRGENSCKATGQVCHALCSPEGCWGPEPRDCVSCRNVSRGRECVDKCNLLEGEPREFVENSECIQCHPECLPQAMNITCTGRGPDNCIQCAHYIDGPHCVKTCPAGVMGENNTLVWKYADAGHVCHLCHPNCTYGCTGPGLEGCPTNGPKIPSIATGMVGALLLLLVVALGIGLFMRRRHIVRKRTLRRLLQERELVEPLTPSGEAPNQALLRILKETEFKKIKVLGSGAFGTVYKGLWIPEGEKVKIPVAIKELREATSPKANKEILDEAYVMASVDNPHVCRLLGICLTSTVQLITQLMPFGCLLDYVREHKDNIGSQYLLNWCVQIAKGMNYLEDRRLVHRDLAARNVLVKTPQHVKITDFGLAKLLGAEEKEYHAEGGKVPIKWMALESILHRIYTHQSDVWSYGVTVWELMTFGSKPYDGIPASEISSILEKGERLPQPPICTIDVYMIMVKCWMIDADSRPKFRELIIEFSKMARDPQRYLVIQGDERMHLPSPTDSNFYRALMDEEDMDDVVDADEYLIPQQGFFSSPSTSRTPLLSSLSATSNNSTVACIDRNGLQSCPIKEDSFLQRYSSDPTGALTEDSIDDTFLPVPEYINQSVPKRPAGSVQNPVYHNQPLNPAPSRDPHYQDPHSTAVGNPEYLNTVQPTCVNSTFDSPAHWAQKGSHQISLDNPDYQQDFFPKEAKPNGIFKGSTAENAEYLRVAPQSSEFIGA
Chain of Mitogen-activated protein kinase 11 (Q15759 whole entry): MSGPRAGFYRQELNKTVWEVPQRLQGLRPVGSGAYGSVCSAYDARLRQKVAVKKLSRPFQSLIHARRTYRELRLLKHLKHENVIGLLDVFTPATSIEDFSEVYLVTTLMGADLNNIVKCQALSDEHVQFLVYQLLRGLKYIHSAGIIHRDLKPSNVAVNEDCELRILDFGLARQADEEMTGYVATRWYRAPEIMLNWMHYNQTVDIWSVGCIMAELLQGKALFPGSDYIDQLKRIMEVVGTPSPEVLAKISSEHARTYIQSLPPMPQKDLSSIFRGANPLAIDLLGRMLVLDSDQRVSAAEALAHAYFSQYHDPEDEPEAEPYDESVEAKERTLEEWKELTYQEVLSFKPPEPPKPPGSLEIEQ
Chain of Cytochrome P450 2C9 (P11712 whole entry): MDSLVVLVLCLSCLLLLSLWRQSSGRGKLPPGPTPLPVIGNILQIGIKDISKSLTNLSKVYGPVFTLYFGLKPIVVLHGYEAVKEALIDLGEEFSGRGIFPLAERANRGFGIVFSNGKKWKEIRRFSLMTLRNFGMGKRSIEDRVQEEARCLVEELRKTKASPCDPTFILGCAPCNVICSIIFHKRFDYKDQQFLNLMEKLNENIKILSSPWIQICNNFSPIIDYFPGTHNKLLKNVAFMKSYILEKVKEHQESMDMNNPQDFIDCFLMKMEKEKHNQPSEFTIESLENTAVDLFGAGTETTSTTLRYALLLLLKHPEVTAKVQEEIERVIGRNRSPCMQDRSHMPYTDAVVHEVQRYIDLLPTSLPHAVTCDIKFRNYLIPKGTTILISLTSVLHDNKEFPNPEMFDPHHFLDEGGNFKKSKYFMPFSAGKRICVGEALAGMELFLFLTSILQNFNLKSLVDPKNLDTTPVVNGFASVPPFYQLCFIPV
Chain of Receptor tyrosine-protein kinase erbB-2 (P04626 whole entry): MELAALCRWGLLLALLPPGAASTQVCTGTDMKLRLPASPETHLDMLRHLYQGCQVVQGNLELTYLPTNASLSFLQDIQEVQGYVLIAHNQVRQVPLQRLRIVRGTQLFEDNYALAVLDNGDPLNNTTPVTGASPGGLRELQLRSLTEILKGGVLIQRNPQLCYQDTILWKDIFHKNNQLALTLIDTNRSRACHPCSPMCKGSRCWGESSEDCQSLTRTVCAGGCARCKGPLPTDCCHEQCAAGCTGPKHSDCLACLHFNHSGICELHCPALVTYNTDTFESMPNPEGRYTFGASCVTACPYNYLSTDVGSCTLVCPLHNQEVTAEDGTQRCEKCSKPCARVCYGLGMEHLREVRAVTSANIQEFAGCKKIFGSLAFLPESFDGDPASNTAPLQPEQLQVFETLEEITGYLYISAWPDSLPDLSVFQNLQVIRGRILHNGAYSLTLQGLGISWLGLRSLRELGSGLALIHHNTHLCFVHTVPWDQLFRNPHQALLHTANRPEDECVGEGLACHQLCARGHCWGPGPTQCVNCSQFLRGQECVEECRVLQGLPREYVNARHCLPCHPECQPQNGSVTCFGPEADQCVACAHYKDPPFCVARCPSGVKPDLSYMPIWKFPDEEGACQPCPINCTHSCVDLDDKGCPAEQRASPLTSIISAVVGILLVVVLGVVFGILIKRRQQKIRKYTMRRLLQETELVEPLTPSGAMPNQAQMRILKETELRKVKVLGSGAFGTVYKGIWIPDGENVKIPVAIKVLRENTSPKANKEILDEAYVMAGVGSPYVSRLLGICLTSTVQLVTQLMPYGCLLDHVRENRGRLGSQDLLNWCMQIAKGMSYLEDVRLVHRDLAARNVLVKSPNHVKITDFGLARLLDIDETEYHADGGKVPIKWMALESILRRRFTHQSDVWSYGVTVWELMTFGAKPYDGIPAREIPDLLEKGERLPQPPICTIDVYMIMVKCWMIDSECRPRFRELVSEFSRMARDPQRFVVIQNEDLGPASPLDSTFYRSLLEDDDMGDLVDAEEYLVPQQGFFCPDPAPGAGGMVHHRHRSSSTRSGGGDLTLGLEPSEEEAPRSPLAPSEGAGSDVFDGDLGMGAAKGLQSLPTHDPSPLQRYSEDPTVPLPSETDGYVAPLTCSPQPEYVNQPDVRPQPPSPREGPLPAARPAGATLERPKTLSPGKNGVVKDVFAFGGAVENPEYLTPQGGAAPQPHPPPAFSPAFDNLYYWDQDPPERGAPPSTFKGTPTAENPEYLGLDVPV
Chain of Mitogen-activated protein kinase 14 (Q16539 whole entry): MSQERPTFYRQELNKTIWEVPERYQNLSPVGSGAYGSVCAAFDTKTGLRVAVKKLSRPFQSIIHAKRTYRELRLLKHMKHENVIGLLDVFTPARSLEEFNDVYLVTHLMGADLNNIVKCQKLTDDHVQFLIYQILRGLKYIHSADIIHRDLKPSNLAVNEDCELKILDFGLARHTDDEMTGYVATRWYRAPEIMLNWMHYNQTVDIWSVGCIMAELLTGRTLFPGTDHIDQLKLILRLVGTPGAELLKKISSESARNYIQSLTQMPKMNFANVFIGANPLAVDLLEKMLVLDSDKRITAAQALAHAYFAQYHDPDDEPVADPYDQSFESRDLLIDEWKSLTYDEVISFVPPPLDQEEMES
Chain of Cytochrome P450 3A4 (P08684 whole entry): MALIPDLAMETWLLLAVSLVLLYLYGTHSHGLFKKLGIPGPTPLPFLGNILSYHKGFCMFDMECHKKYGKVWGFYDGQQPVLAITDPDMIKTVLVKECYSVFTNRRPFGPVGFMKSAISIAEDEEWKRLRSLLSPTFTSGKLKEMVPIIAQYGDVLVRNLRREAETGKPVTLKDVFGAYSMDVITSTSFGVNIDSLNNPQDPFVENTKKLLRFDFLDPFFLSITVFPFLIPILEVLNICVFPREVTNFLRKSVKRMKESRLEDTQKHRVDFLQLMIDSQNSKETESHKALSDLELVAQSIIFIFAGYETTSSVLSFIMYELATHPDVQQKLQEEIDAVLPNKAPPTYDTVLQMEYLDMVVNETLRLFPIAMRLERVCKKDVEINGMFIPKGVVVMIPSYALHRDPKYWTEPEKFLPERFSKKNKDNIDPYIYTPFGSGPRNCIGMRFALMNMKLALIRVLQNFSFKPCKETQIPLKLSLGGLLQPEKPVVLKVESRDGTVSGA

For `COc1cc2ncn(-c3cc(OCc4ccccc4S(C)(=O)=O)c(C#N)s3)c2cc1OC` [GSK-319347A], the pIC50 [1] was under 4.30, the pIC50 [2] was under 4.30 and the solubility [3] was 60 µM (≈ 28.2 µg/mL). For the same compound, the pIC50 [4] was under 4.80, the pIC50 [5] was under 4.30 and the pIC50 [6] was under 5.30. It also gave a pIC50 [7] of under 5.00, a Log IC50 [8] of over -4.8 and a pIC50 [9] of under 4.30. It also gave a pIC50 [10] of 6.10, a pIC50 [11] of under 4.80 and a pIC50 [12] of 7.40. The pIC50 [13] was under 5.00 and the pIC50 [14] was under 4.80.

Work on `COc1cc2ncn(-c3cc(OCc4ccccc4C(F)(F)F)c(C#N)s3)c2cc1OC` yielded a pIC50 [12] of 6.60.

Compound `COc1cc2ncn(-c3cc(OCc4ccccc4)c(C(=O)O)s3)c2cc1OC` has a pIC50 [10] of 6.20 and a pIC50 [12] of under 4.80.

`COc1cc2ncn(-c3cc(OCc4ccc(S(C)(=O)=O)cc4)c(C(N)=O)s3)c2cc1OC` gave a pIC50 [10] of 6.90.

With `COc1cc2ncn(-c3cc(OCC4CCCO4)c(C#N)s3)c2cc1OC` (configuration not stated) the pIC50 [12] was 6.10.

`COc1cc2ncn(-c3cc(OCC4CCCO4)c(C(N)=O)s3)c2cc1OC` (configuration not stated) showed a pIC50 [10] of 6.60.

Work on `COc1cc2ncn(-c3cc(O[C@H](C)c4ccccc4Cl)c(C(N)=O)s3)c2cc1OC` [GSK-237701A] yielded a pIC50 [12] of 4.70.

With `COc1cc2c(cc1OCCN1CCOCC1)ncn2-c1cc(OCc2ccccc2C(F)(F)F)c(C#N)s1` the pIC50 [12] was 7.30.

In the case of `N#Cc1sc(-n2cnc3ccccc32)cc1OCc1ccccc1`, the pIC50 [12] was 6.00.

Compound `COc1cc2ncn(-c3cc(OCc4ccc(S(C)(=O)=O)cc4)c(C#N)s3)c2cc1OC` has a pIC50 [10] of 6.20 and a pIC50 [12] of 5.30.

`COc1cc2ncn(-c3cc(O)c(C#N)s3)c2cc1OC` showed a pIC50 [12] of 5.60.

With `COc1cc2ncn(-c3cc(O[C@H](C)c4ccccc4C(F)(F)F)c(C#N)s3)c2cc1OC` the pIC50 [12] was 5.40.

In the case of `COc1cc2ncn(-c3cc(OCCN4CCCCC4)c(C#N)s3)c2cc1OC`, the pIC50 [12] was 5.30.

In the case of `COc1cc2ncn(-c3cc(OCc4ccc(C(N)=O)cc4)c(C#N)s3)c2cc1OC`, the pIC50 [12] was 4.90.

For `COc1cc2ncn(-c3cc(OCC4CC4)c(C#N)s3)c2cc1OC`, the pIC50 [12] was 5.50.

With `COc1cc2c(cc1OCCCO)ncn2-c1cc(OCc2ccccc2C(F)(F)F)c(C#N)s1` the pIC50 [12] was 7.60.

In the case of `COc1cc2ncn(-c3cc(OCCN4CCOCC4)c(C#N)s3)c2cc1OC`, the pIC50 [12] was 5.80.
